ChEMBL document CHEMBL1201862, “PubChem BioAssay data set” (2004)
Active and inactive are the calls of the source.

Assays:
[1] = cells; format: functional, cell-based
[2] = target: T1, Trace amine-associated receptor 1 (Homo sapiens, UniProt Q96RJ0); assay: Fluorescence-based cell-based high throughput dose response assay to identify agonists of the human trace amine associated receptor 1 (TAAR1).; format: functional
T1 sequence (Q96RJ0 whole entry): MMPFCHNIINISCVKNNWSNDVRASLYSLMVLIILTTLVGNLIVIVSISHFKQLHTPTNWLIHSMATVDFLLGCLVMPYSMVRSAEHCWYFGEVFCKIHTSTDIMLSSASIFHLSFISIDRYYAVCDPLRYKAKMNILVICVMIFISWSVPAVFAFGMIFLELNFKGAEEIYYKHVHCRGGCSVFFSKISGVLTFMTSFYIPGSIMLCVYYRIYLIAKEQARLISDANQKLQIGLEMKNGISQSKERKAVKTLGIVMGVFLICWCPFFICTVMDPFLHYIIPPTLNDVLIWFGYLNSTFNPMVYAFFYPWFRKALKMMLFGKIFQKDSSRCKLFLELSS

[3] = cells; format: functional, cell-based; remark: listed apart in the source
[4] = THP-1 cell cytotoxicity, dose response, cytotoxicity control for non-replicating M. tuberculosis project (AID 489025); format: functional
[5] = target: T1, Trace amine-associated receptor 1; assay: Counterscreen for agonists of the human trace amine associated receptor 1 (hTAAR1): Fluorescence-based cell-based high throughput dose response assay to identify hTAAR1 agonist that also desensitize TAAR1 receptor response.; format: functional
[6] = target: Mu-type opioid receptor (Homo sapiens, UniProt P35372); format: functional, cell-based;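 note: U2OS cells with beta-arrestin recruitment to OPRM1 by beta-gal complementation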
[7] = target: 5-hydroxytryptamine receptor 2A (Mus musculus, UniProt P35363); format: functional, cell-based;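 note: CHO-K1 cells with tagged receptor and beta-arrestin; agonist potency measured as compound-induced activation of the receptor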
[8] = test system: H4; assay: Luminescence Cell-Based Dose Response HTS to Identify Activators of 5'UTR Stem-Loop Driven Prion Protein mRNA Translation in H4 Neuroglioblastoma Cells. [Related pubchem assays: 1829 (Project Summary), 1814 (Primary HTS)]; format: functional; settings: Homo sapiens
[9] = Luminescence Cell-Based Dose Confirmation HTS to Identify Activators of 5'UTR Stem-Loop Driven Alpha-Synuclein mRNA Translation in H4 Neuroglioblastoma Cells. [Related pubchem assays: 1829 (Project Summary), 1814 (Primary HTS)]; format: functional
[10] = target: Genome polyprotein (dengue virus type 2, UniProt P29990); assay: Dengue-2 NS5 methyltransferase inhibitors, primary screen, biochemical, confirmation dose response (AID 588689); format: functional
[11] = target: Photoreceptor-specific nuclear receptor (Homo sapiens, UniProt Q9Y5X4); format: functional, cell-based;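 note: CHO-S cells with Gal4-NCOR and VP16-NR2E3 two-hybrid luciferase reporter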
[12] = Luminescence Cell-Based Dose Response HTS to Identify Activators of Luciferase Translation or Activity in H4 […] Cells. [Related pubchem assays: 1829 (Project Summary), 1814 (Primary HTS)]; format: functional
[13] = target: Glucose-6-phosphate 1-dehydrogenase (Homo sapiens, UniProt P11413); assay: human G6PD enzyme inhibitors, dose response, selectivity assay for P. falciparum G6PD inhibitor project, biochemical, fluorescence (AID 504792); format: functional
[14] = target: T1, Trace amine-associated receptor 1; assay: Fluorescence-based cell-based high throughput dose response assay to identify antagonists of the human trace amine associated receptor 1 (TAAR1).; format: functional
[15] = target: T1, Trace amine-associated receptor 1; assay: Counterscreen for antagonists of the human trace amine associated receptor 1 (hTAAR1): Fluorescence-based cell-based high throughput dose response assay to identify TAAR1 Agonists.; format: functional
[16] = Counterscreen for antagonists of the human trace amine associated receptor 1 (hTAAR1): Fluorescence-based cell-based high throughput dose response assay to identify nonselective Ga16 antagonists.; format: functional
[17] = Counterscreen for […] of the human trace amine associated receptor 1 (TAAR1): Fluorescence-based cell-based high throughput dose response assay to identify nonselective Ga16 agonists.; format: functional
[18] = target: SWI/SNF-related matrix-associated actin-dependent regulator of chromatin subfamily A member 2 (Homo sapiens, UniProt P51531); assay: Luminescence-based cell-based high throughput dose response assay to identify activators of the function of SWI/SNF related, matrix associated, actin dependent regulator of chromatin, subfamily a, member 2 (SMARCA2, BRM).; format: functional
[19] = Counterscreen for activators of the function of SWI/SNF related, matrix associated, actin dependent regulator of chromatin, subfamily a, member 2 (SMARCA2, BRM): Luminescence-based cell-based high throughput dose response assay to identify non-selective compounds using the VP16 reporter assay.; format: functional
[20] = CRF-BP/CRF-R2 complex antagonists, dose response, cell-based, uHTS hits, 384-well (AID 651639); format: functional, Homo sapiens; settings: read-out: IC50_Mean
[21] = target: T2, Corticotropin-releasing factor receptor 2/Corticotropin-releasing factor-binding protein (Homo sapiens, UniProt P24387+Q13324); assay: Dose Response confirmation of uHTS hits for small molecule antagonists of the CRF-binding protein and CRF-R2 receptor complex.; format: functional; settings: read-out: IC50_Mean
T2 sequence (Q13324 whole entry): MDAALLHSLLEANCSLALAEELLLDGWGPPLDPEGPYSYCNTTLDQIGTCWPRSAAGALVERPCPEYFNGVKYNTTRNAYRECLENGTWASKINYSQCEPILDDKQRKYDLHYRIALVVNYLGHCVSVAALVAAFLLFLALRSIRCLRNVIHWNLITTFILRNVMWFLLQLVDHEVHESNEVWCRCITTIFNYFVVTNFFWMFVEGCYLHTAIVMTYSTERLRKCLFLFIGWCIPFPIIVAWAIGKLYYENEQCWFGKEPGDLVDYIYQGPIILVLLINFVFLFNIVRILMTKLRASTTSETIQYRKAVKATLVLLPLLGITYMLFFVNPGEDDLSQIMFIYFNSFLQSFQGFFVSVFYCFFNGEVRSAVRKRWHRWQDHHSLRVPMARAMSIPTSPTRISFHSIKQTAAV
T2 sequence (P24387 whole entry): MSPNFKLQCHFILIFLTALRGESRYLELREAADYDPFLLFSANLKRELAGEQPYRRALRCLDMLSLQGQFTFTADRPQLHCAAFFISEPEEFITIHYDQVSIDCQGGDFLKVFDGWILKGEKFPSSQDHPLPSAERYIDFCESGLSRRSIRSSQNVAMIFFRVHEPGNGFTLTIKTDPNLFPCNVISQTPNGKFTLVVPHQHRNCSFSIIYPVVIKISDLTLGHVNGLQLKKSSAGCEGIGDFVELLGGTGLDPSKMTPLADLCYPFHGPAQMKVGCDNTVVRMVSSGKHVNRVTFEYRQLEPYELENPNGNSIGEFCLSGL

[22] = target: T3, Long-chain-fatty-acid--AMP ligase FadD28 (Mycobacterium tuberculosis, UniProt P9WQ59); assay: Fluorescence polarization aasay to screen for inhibitors that compete for the binding of FadD28 to a bisubstrate Measured in Biochemical System Using Plate Reader - 2147-01_Inhibitor_Dose_CherryPick_Activity.; format: functional, Mycobacterium tuberculosis H37Rv
T3 sequence (P9WQ59 whole entry): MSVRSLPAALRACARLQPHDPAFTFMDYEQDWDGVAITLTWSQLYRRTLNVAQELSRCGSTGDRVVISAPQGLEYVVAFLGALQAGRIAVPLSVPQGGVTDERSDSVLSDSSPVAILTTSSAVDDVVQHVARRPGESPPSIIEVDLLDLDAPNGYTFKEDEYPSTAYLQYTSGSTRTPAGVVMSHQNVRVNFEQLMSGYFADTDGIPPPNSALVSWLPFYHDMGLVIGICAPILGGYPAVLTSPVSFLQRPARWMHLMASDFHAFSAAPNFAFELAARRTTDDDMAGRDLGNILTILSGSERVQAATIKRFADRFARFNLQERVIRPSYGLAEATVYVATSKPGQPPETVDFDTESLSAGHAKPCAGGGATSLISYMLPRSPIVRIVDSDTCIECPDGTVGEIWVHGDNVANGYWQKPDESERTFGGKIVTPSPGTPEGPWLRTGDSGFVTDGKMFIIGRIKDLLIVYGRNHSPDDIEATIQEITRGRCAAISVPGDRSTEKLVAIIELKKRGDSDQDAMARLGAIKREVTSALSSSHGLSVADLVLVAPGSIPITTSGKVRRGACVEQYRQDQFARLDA

[23] = target: T4, Aminopeptidase N (Plasmodium falciparum FcB1/Columbia, UniProt O96935); assay: P. falciparum M1AAP inhibitors, biochemical, fluorogenic H-Leu-NHMec substrate, 1536-well (AID 1445); parameters: species or system Plasmodium falciparum 3D7, 3D7
T4 sequence (O96935 whole entry): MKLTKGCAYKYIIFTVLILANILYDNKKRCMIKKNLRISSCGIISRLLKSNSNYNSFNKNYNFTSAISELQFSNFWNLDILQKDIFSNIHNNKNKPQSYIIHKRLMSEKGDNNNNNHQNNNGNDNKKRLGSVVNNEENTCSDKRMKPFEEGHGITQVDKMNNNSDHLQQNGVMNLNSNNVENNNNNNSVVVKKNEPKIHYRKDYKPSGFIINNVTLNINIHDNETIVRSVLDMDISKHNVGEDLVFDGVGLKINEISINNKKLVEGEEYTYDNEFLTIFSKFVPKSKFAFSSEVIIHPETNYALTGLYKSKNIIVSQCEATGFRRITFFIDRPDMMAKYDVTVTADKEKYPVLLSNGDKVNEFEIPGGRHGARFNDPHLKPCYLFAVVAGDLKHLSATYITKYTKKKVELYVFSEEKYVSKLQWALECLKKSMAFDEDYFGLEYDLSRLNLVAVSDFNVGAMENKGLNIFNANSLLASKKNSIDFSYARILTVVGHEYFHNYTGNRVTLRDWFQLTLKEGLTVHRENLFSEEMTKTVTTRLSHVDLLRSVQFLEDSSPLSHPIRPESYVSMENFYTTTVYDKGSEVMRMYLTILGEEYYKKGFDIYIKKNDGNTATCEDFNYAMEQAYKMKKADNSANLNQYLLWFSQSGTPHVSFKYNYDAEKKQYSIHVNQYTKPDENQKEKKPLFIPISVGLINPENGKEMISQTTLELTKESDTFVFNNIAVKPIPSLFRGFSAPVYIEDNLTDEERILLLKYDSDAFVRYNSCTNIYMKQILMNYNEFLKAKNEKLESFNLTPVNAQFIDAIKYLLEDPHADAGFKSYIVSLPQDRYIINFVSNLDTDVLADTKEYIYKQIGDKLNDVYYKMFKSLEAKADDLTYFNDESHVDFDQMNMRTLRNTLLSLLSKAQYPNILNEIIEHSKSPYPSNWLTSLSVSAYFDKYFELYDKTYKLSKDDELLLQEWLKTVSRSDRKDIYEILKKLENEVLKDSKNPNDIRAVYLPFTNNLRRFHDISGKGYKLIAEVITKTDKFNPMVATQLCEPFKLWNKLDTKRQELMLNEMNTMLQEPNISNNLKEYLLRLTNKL

[24] = target: T2, Corticotropin-releasing factor receptor 2/Corticotropin-releasing factor-binding protein; assay: activators of CRF receptor 2 with binding protein – uHTS hits, confirmation (AID 602473); format: functional; settings: read-out: EC50_Mean
[25] = HEK293T cytotoxicity, dose response, cytotoxicity control for miR-122 modulator project, cell-based, activator set, cherry-pick (AID 720690); format: functional;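 note: HEK293T human cells scored for general mammalian cytotoxicity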
[26] = miR-122 activators in hepatoma reporter cells, dose response, cell-based, Huh7 psiCHECK-miR122, Renilla luciferase, cherry-picked (AID 651956); format: functional;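 note: huh7 hepatoma cells stably carrying a psiCHECK-2 miR-122 sensor plasmid; renilla luciferase signal reporting endogenous miR-122 activity after 48 h compound exposure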
[27] = HEK293T cytotoxicity, dose response, cytotoxicity control for miR-122 modulator project, cell-based, inhibitor set, cherry-pick, set 2 (AID 720697); format: functional
[28] = NIH:OVCAR-3 ovarian cancer cell cytotoxicity, dose response, PAX8 inhibitor project, plate reader, dry powder samples (AID 743044); format: functional, cell-based
[29] = target: Paired box protein Pax-8 (Homo sapiens, UniProt Q06710); assay: inhibitors of PAX8-driven TPO luciferase reporter, dose response, RMG-I cells, cherry-pick (AID 687027); format: functional, cell-based;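 note: luciferase reporter driven by Pax8 target thyroperoxidase promoter measured by SteadyGlo luminescence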
Paired box protein Pax-8, sequence (Q06710 whole entry): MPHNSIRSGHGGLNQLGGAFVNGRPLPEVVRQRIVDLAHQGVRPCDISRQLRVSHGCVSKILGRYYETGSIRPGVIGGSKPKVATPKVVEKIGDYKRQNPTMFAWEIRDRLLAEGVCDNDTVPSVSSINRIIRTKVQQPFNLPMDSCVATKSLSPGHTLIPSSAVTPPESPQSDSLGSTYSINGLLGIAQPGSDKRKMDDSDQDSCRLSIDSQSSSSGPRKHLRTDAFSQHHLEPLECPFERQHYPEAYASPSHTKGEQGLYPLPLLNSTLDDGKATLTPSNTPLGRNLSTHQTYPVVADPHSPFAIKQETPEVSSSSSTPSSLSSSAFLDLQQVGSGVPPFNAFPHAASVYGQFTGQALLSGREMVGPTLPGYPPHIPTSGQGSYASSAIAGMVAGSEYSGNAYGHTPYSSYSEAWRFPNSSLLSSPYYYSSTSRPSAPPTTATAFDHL

5-hydroxytryptamine receptor 2A, sequence (P35363 whole entry): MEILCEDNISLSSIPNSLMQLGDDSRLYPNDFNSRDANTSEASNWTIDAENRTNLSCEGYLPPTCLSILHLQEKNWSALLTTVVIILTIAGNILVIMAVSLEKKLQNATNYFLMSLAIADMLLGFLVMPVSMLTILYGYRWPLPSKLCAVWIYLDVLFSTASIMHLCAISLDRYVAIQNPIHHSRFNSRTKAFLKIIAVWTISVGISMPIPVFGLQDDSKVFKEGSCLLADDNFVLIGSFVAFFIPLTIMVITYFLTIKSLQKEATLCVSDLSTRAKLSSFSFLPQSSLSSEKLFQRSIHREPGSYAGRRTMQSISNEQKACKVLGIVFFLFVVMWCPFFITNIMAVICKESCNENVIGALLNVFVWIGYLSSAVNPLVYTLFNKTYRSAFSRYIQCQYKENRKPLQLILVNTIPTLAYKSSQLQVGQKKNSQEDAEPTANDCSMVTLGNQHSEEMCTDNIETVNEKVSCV
Genome polyprotein, sequence (P29990 2492-3391 limits assumed): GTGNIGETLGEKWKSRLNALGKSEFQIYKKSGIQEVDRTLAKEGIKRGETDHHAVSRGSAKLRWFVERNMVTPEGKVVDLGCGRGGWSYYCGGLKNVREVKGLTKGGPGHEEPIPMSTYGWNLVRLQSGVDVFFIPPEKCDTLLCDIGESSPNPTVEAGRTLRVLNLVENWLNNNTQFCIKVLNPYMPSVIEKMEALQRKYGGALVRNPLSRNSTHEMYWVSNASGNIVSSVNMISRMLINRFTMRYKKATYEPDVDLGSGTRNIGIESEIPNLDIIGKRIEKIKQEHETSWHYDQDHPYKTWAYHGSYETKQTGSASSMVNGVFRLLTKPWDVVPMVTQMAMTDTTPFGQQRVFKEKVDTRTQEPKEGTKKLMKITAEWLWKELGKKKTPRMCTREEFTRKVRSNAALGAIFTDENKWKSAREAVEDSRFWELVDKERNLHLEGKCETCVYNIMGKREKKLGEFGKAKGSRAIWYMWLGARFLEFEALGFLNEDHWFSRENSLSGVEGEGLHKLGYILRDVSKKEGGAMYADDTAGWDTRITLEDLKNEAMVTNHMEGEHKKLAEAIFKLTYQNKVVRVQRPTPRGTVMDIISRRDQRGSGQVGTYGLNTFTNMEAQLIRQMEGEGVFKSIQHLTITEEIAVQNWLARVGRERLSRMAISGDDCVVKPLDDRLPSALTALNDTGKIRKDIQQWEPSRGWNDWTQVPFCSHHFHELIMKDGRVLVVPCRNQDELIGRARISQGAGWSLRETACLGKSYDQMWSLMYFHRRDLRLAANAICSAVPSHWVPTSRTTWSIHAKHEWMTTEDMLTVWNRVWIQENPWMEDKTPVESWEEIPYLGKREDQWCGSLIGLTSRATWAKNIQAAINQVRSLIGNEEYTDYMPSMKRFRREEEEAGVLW
Mu-type opioid receptor, sequence (P35372 whole entry): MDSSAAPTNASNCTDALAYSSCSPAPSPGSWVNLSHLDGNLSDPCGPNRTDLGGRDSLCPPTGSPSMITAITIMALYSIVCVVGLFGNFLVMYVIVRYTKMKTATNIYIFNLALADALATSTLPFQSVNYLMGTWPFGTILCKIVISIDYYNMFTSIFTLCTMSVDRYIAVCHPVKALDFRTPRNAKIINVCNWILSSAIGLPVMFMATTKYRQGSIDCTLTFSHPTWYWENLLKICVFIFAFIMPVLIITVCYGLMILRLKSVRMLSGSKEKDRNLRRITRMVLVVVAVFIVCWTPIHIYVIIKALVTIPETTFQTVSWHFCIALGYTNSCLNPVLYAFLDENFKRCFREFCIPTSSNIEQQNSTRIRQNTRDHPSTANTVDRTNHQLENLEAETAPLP
SWI/SNF-related matrix-associated actin-dependent regulator of chromatin subfamily A member 2, sequence (P51531 whole entry): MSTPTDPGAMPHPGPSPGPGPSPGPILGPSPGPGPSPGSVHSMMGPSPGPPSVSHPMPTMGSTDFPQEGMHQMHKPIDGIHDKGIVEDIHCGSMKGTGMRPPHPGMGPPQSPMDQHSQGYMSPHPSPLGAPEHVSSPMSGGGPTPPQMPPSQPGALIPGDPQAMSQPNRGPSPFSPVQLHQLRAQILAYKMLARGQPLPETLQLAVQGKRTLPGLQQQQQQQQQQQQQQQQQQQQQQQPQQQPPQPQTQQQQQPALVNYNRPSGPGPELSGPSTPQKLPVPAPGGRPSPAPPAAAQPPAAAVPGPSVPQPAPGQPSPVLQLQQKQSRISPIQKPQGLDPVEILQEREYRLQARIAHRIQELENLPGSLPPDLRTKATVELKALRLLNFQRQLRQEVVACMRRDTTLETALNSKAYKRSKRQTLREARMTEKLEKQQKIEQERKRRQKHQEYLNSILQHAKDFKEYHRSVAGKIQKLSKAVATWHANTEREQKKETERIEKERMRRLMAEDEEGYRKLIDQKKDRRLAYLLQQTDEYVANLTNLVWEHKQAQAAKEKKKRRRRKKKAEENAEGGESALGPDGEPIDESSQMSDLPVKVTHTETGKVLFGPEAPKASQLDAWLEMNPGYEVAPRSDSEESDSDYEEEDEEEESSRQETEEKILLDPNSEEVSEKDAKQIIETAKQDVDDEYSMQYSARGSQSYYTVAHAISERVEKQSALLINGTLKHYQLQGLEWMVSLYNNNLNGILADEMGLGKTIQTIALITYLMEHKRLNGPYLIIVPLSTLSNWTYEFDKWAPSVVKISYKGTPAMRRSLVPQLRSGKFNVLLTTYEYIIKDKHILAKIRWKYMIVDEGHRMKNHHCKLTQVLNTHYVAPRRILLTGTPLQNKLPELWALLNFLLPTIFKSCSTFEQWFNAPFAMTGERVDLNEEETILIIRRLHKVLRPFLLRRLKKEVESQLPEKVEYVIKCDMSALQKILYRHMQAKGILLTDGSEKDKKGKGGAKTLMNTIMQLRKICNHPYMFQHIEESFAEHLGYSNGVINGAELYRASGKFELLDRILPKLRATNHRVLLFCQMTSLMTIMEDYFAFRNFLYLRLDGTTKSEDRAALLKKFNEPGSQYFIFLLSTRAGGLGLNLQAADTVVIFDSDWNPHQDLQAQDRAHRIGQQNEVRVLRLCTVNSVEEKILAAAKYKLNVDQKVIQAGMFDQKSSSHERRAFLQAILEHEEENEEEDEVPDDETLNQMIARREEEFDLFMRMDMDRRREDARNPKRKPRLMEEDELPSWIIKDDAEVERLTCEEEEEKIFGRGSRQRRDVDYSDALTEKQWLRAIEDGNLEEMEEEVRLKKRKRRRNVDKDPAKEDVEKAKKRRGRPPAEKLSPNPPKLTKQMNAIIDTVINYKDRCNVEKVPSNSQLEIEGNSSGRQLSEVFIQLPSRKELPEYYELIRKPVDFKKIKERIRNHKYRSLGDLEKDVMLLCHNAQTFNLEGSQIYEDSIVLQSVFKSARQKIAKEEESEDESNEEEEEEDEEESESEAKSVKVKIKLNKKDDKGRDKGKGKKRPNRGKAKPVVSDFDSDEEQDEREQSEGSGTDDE
Glucose-6-phosphate 1-dehydrogenase, sequence (P11413 whole entry): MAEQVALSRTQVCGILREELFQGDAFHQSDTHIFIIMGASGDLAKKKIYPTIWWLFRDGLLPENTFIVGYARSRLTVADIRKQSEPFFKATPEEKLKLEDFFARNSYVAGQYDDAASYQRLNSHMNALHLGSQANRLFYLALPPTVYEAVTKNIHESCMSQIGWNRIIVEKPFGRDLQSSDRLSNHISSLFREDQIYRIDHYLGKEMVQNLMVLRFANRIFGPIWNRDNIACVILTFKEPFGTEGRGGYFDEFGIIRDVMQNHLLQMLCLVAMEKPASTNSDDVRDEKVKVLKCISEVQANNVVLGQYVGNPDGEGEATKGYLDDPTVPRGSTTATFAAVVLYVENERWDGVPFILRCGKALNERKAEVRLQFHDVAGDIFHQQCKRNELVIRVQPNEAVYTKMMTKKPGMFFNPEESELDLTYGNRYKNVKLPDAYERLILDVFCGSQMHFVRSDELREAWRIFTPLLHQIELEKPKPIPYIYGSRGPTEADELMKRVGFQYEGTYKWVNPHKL
Photoreceptor-specific nuclear receptor, sequence (Q9Y5X4 whole entry, the tested form may be a part): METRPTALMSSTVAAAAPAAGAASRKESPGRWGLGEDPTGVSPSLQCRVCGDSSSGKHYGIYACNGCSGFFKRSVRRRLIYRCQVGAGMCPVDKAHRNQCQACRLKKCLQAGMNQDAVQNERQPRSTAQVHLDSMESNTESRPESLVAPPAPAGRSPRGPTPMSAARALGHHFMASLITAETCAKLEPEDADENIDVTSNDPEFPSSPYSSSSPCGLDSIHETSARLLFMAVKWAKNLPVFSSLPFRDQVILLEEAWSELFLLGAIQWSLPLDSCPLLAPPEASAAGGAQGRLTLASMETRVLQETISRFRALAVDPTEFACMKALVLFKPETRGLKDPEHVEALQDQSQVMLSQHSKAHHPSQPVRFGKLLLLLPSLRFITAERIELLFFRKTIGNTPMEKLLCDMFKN

Structure (SMILES): COc1cc(C(=O)CCN2CCC(c3ccccc3)C2)cc(OC)c1OC (stereo not given)
- IC50 [1]: > 29.9 µM (inactive)
- EC50 [2]: 0.242 µM (active)
- EC50 [3]: > 29.9 µM (inactive)
- CC50 [4]: > 40 µM (active)
- IC50 [5]: 2.35 µM (active)

Structure (SMILES): COc1cccc(NC(=O)c2ccc(CN3CCN(c4ccccc4)CC3)cc2)c1
- EC50 [6]: 92.5 µM (inactive)
- EC50 [7]: 4.28 µM (active)

Structure (SMILES): CC(C)c1cc2c(c(O)c1O)[C@@]13CCCC(C)(C)C1CC2OC3=O (stereo not given in full)
- EC50 [8]: > 120 µM (not active)
- EC50 [9]: 71.2 µM (active)
- IC50 [10]: 84.4 µM (active)
- IC50 [11]: 2.59 µM (active)
- EC50 [12]: > 60 µM (not active)
- IC50 [13]: > 80 µM (inactive)

Structure (SMILES): COc1cc(NC(=O)c2cc3ccccc3o2)c(OC)cc1Cl
- IC50 [14]: 3.98 µM (active)
- EC50 [15]: > 29.9 µM (inactive)
- IC50 [16]: > 29.9 µM (inactive)
- EC50 [17]: > 29.9 µM (inactive)

Structure (SMILES): O=C(COC(=O)c1nc(Cl)c(Cl)c(Cl)c1Cl)NCc1ccccc1
- EC50 [18]: > 91.1 µM (inactive)
- EC50 [19]: > 91.1 µM (inactive)

Structure (SMILES): C=CCOc1ccc(/C=C2\SC(=S)N(C(C(=O)O)c3ccccc3)C2=O)cc1 (stereo not given)
- IC50 [20]: 14.7 µM (active)
- IC50 [21]: 4.06 µM (active)
- IC50 [10]: 40.2 µM (active)
- AC50 [22]: 4.48 µM (active)
- IC50 [23]: 33.8 µM (active)
- EC50 [24]: 33.2 µM (active)

Structure (SMILES): COc1ccc(-c2c(C#Cc3ccsc3)c3cc(-c4ccc(C(N)=O)cc4)ccc3n2C)cc1
- IC50 [14]: 0.233 µM (active)
- EC50 [15]: > 29.9 µM (inactive)
- IC50 [16]: > 29.9 µM (inactive)
- EC50 [17]: > 29.9 µM (inactive)

Structure (SMILES): COc1ccc(CN(C)C[C@@H]2OCCCC[C@H](C)Oc3ccc(NC(=O)Nc4ccc(C(F)(F)F)cc4)cc3C(=O)N([C@H](C)CO)C[C@@H]2C)cc1
- AC50 [25]: 14.5 µM (active)
- AC50 [26]: 17.5 µM (active)
- AC50 [27]: 12 µM (active)
- AC50 [28]: 44.6 µM (active)
- AC50 [29]: 20.1 µM (active)

Structure (SMILES): CCOC(=O)[C@]12CCC=C1N(Cc1ccc3c(c1)OCO3)C(=O)[C@H](CC(=O)NCCc1ccccc1OC)C2
- IC50 [1]: > 29.9 µM (inactive)
- EC50 [2]: 7.51 µM (active)
- EC50 [3]: > 29.9 µM (inactive)
- IC50 [5]: 6.46 µM (active)

Structure (SMILES): COc1cccc(-c2nc(CN3CCN(C(=O)c4ccco4)CC3)c(C)o2)c1OC
- EC50 [6]: 92.5 µM (inactive)
- EC50 [7]: 20 µM (inactive)
